Square brackets hold non-standard residues; d marks the D form. Peptide text beside a SMILES is read from it.
Assay: Ex-vivo stability in mouse plasma, MALDI-TOF MS
Format: in vitro ADME, C57BL/6 mice
Conditions: 37° C., 24 h
Procedure: The stability of D-AIP in mouse plasma, blood and liver S-9 fraction was investigated to ascertain the metabolic resistance towards proteases and enzymatic activities in these matrices. Whole mouse blood obtained from healthy C57BL/6 male and female mice (6 mice in total) were collected in lithium heparin containing tubes, pooled and stored at 4° C. prior to its use. A fraction of the pooled blood was immediately centrifuged at 1500×g for 10 min at 4° C. to obtain the plasma. The whole blood and plasma samples were spiked with PBS (as control) or AIP (L-AIP, D-AIP or sD-AIP respectively) to make a final concentration of 1 ug/mL and incubated at 37° C. Initial samples were withdrawn to represent t=0 prior to incubation and others were withdrawn 1, 3 and 24 h respectively. Fresh mouse liver also obtained from C57BL/6 male and female mice were pooled, homogenized in 0.15 M Potassium chloride (KCl) and centrifuged at 9000×g. […] The samples were then vigorously mixed for 30 s to facilitate extraction and centrifuged for 10 minutes at 13000 rpm, the supernatant was subjected to sample clean up by C18 ZipTip (EMD Millipore Corporation), the eluates were spotted with CHCA matrix on the ground steel MALDI-TOF target and analyzed with MALDI-TOF MS. […]

With `C[C@H](O)[C@@H](NC(=O)CNC(=O)[C@H](N)CCCNC(=N)N)C(=O)N[C@H](Cc1ccccc1)C(=O)N[C@H](CCC(=O)O)C(=O)NCC(=O)N[C@H](CCCCN)C(=O)N[C@H](Cc1ccccc1)C(=O)O` [D-AIP] (H-[dR]G[dT][dF][dE]G[dK][dF]-OH; N-terminus and C-terminus assumed) the “stability, MALDI-TOF MS signal (941 m/z)” value was “relatively stable over 24 h”.

Source: patent US12613249B2 (THE ROYAL INSTITUTION FOR THE ADVANCEMENT OF LEARNING / …, priority 2019, dated 2026)
